# Source: patent publication EP0739343B1, “WATER SOLUBLE ONIUM SALT OF TAXO-DITERPENOID” (THE SCRIPPS RESEARCH INSTITUTE, priority 1994, dated 1995)
# How the values were obtained:
# [1] = Stability and taxol release in the solid state and aqueous media, assayed by HPLC; assay type: physicochemical
# Procedure: (§1) Due to a difference in retention time using our standard HPLC conditions (see Fig. 1) and differing ultraviolet absorption maxima (1280/1254 = 1.6 for 2 and 0.3 for 1), the stability of 2 was easily assayed by HPLC (Fig. 1). […] In phosphate buffered saline (PBS) or ammonium acetate - phosphate buffer systems of pH 6.0 to 7.3, 2 is stable at 25 °C for over 21 days. Taxol-2'-MPT (2) is, however, unstable in 5% HCl (pH 1.1) and brine.
# (§2) Under these conditions 20% of total is recovered. More particularly, Taxol-2'-MPT (2) was dissolved in the aqueous system with the aid of sonication for five minutes. Aliquots were then removed at the times shown and partitioned into methylene chloride to quench the reaction. Samples were then analyzed using a Waters Maxima HPLC instrument equipped with an autoinjector (3.9x300 mm C18 column equipped with a precolumn. The flow rate was 1.5 mL/minute. The eluent gradient A-B extended over 30 minutes. "A" was 80% 80mM ammonium acetate, pH 6.0. "B" was 100% methanol. An ultraviolet diode array detector was employed. The ratio of compound 2 (Rf 16.2 min.) to taxol (compound 1, Rf 16.8 min.) remaining was determined from the relative areas of the peaks after normalization with previously determined calibration curves.
# [2] = Taxol release from the prodrug in plasma, methylene chloride extraction and HPLC; assay type: in vitro ADME, human
# Procedure: as §1, §2
# [3] = Critical aggregation concentration by UV absorption (optical density) at 340 nm; assay type: physicochemical; settings: buffered solutions, absorption at 340 nm
# tubulin = assay: Tubulin (microtubule) polymerization-depolymerization measurement, turbidity at 340 nm; assay type: biochemical; settings: for calcium chloride promoted depolymerization is suppressed: tubulin 1.0 mg/mL, 1.0 mM GTP, compound 10^-6 M, CaCl2 0.25 mM added after 20 minutes, 37°C
# Procedure: Tubulin polymerization-depolymerization measurements are illustrate in Figure 3. Negative controls are shown with triangles; positive taxol controls are shown with diamonds; and taxol-2'-MPT, i.e., compound 2 is shown with dots.
# More particularly, measurement were performed in 96 well plates at 37°C following the protocol of R. Merlock and W. Wrasidlo (Analytical Biochemistry 1993, in press). Calcium chloride addition is indicated by the arrow. In each case, 1.0 mM GTP was used to promote the initial polymerization of tubulin. Negative control employed tubulin (1.0 mg/mL) alone, CaCl2 (0,25 mM) added after 20 minutes. Positive taxol control employed tubulin (1.0 mg/mL) with taxol (10^-6M) and CaCl2 (0.25mM) added after 20 minutes. The experimental taxol-2'-MPT employed tubulin (1.0 mg/mL) with taxol-2'-MPT (10^-6) and CaCl2 (0.25 mM) added after 20 minutes. Turbidity was measured as optical density at 340 nm using a microplate reader (Molecular Devices Thermomax).
# [4] = Metabolic study using the tritiated compound; assay type: in vivo; settings: tritiated 2
# physchem = settings: water
# Procedure: The solubility and partition coefficient data for 2 and taxol were determined using an HPLC method.
# Solubility was found by forming a solution in water with the aid of sonication for five minutes, centrifugation of the samples, and injection of the supernatant. The values reported were normalized using calibration curves constructed for both compounds by preparing known concentrations in the range 1 x 10^-6 to 1 x 10^-3 M in methylene chloride and subjecting to HPLC analysis under the same conditions. […] Partition coefficients were determined by dissolving the compound in the organic phase, shaking the resulting solution with water for ten minutes, and analyzing each phase by HPLC as above.
# albumin = albumin (Homo sapiens, UniProt P02768); settings: serum; cited from earlier work
# Chain of albumin (P02768 25-609): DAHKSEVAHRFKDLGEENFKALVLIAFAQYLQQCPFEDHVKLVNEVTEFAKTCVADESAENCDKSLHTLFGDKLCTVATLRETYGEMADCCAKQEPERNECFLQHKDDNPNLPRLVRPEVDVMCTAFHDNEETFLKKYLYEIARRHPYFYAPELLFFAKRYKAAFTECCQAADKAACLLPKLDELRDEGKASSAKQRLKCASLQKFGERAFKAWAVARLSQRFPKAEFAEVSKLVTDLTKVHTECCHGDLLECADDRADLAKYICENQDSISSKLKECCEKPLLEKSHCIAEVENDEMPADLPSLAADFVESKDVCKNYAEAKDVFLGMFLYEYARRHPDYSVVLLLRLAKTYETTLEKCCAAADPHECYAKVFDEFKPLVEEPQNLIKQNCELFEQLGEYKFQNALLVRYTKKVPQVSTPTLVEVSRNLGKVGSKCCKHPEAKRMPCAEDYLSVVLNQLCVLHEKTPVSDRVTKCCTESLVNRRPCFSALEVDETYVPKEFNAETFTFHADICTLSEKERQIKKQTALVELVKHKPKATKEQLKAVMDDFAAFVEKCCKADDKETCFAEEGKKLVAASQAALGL
# [5] = in water, 5% dextrose, and 1.5% saline
smiles,measurement,setting,value
"CC(=O)O[C@H]1C(=O)[C@@]2(C)[C@H]([C@H](OC(=O)c3ccccc3)[C@]3(O)C[C@H](OC(=O)[C@H](Oc4cccc[n+]4C)[C@@H](NC(=O)c4ccccc4)c4ccccc4)C(C)=C1C3(C)C)[C@]1(OC(C)=O)CO[C@@H]1C[C@@H]2O [compound 2, Taxol-2'-MPT]",stability,[1]; 5% HCl (pH 1.1) and brine,unstable
same,stability in the solid state,"[1]; -80 °C to 25 °C, regardless of inert atmosphere",completely stable
same,stable for,"[1]; PBS or ammonium acetate - phosphate buffer systems of pH 6.0 to 7.3, 25 °C",over 21 days
same,begins to exhibit slow degradation after,[1]; [5],4 days
same,stability,[1]; [5],stable for several days
same,taxol release,"[1]; sterile water, pH 6.2 phosphate buffered saline, or 5% dextrose, 25°C, period of 11 minutes",no taxol release is observed
same,stability when incubated with human plasma,"[2]; 37°C, human plasma",breaks down rapidly
same,complete conversion of 2 into taxol (1),"[2]; plasma treated with compound 2, methylene chloride extraction",≤ 10 min
same,critical concentration (exponential increase in optical density),[3],400 µM
same,effect on tubulin-microtubule equilibria,"tubulin; buffered aqueous environment of the assay, 2 not converted to taxol",does not affect the tubulin-microtubule equilibria
same,calcium chloride promoted depolymerization is suppressed,tubulin,not
same,excreted through the kidneys,[4],5%
"CC(=O)O[C@H]1C(=O)[C@@]2(C)[C@H]([C@H](OC(=O)c3ccccc3)[C@]3(O)C[C@H](OC(=O)[C@H](O)[C@@H](NC(=O)c4ccccc4)c4ccccc4)C(C)=C1C3(C)C)[C@]1(OC(C)=O)CO[C@@H]1C[C@@H]2O [taxol, Taxol]",microtubule stabilization,tubulin; taxol recovered from human plasma treated with 2,exhibited the expected microtubule stabilization
same,calcium chloride promoted depolymerization is suppressed,tubulin,suppressed
same,Partition Coefficient [octanol]/[water],,> 10000
same,solubility,physchem,< 1.5 µM
same,bind to albumin in sera,albumin,ca. 85%
